Measurements published in patent publication EP4667483A1, “HUMAN TRANSFERRIN RECEPTOR-BINDING PEPTIDE” (JCR Pharmaceuticals Co., Ltd., priority 2023, dated 2024).
Numbered stars: 1 amine (or outer) side, 2 acyl side, 3 side chain; on linkers, the order of the positions; unused ones are H or OH. Bridge positions count the residues as written; N and C are the ends. Square brackets hold non-standard residues; d marks the D form. Peptide text beside a SMILES is read from it. * marks the point of attachment. Trp(1-CH2COOH) = N[C@@H](Cc1cn(CC(=O)O)c2ccccc12)C(=O)O; NMePhe(4-COOH) = CN[C@@H](Cc1ccc(C(=O)O)cc1)C(=O)O; Ala(2-NH2-4-pyridyl) = Nc1cc(C[C@H](N)C(=O)O)ccn1; X1 = O=C([C@H](Cc1cccc(C(=O)[*:3])c1)N[*:1])[*:2]; Nle(6-morpholino) = N[C@@H](CCCCN1CCOCC1)C(=O)O; Phe(3-COOH) = N[C@@H](Cc1cccc(C(=O)O)c1)C(=O)O; Trp(7-aza) = N[C@@H](Cc1c[nH]c2ncccc12)C(=O)O; NH(CH2CH2O)8Me = COCCOCCOCCOCCOCCOCCOCCOCCN*; NMePhe(3-Cl) = CN[C@@H](Cc1cccc(Cl)c1)C(=O)O; X5 = COc1cc(C[C@H](N[*:1])C(=O)[*:2])ccn1; 3Pal(6-NH2) = Nc1ccc(C[C@H](N)C(=O)O)cn1; NMeY = CN[C@@H](Cc1ccc(O)cc1)C(=O)O; Nva(3-Et) = CCC(CC)[C@H](N)C(=O)O; 3Pal = N[C@@H](Cc1cccnc1)C(=O)O; 4Pal = N[C@@H](Cc1ccncc1)C(=O)O; PEG4 = NCCOCCOCCOCCOCCC(=O)O; Carboxymethyl = O=C(O)C*

Assays:
[1] = target: T1, human transferrin receptor (hTfR) (Homo sapiens, UniProt P02786); assay: SPR measurement under pH 7.4 conditions (Biacore T200, CM3 chip, hTfR captured by His Tag antibody); type: binding; settings: SPR, pH 7.4; peptide with the linker named in the table; read-out: hTfR SPR pH7.4 KD
[2] = target: T1, human transferrin receptor (hTfR); assay: SPR measurement under pH 6.0 conditions (Biacore T200, NTA chip, immobilized hTfR); type: binding; settings: SPR, pH 6.0; peptide with the linker named in the table; read-out: hTfR SPR pH6.0 KD

T1 sequence (P02786 whole entry): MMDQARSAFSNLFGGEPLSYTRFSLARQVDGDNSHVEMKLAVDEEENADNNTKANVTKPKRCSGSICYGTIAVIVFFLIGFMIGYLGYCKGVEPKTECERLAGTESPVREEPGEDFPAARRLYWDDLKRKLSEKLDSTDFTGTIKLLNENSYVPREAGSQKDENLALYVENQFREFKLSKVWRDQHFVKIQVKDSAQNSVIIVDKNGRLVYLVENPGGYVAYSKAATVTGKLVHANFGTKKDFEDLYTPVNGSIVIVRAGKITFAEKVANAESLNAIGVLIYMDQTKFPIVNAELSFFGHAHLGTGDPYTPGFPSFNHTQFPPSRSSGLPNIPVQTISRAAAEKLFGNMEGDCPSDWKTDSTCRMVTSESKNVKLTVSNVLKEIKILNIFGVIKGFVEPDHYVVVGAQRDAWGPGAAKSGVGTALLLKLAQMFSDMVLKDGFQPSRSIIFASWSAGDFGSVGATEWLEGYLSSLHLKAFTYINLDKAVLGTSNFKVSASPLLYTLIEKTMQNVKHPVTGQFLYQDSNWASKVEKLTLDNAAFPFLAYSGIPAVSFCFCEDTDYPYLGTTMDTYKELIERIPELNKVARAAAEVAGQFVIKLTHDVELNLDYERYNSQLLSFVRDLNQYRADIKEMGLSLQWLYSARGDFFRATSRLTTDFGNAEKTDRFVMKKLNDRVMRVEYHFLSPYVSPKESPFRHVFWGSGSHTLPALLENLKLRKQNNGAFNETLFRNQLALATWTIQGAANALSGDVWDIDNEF

| SMILES | Kd [1] | Kd [2] |
| --- | --- | --- |
| CCC(CC)[C@@H]1NC(=O)[C@H](Cc2ccc(OCC(=O)O)cc2)NC(=O)[C@H](Cc2ccc(O)cc2)NC(=O)[C@H](CC(N)=O)NC(=O)[C@H](Cc2cn(CC(=O)O)c3ccccc23)NC(=O)[C@H](C(C)C)NC(=O)[C@H](Cc2cccc(Cl)c2)N(C)C(=O)[C@H](C(C)C)NC(=O)[C@H](C)NC(=O)CSC[C@@H](C(=O)NCCOCCOCCOCCOCCC(N)=O)NC(=O)[C@H](Cc2ccc(O)cc2)N(C)C(=O)[C@H](Cc2ccc(N)nc2)NC(=O)[C@H](CCCNC(=N)N)NC(=O)[C@H](CCC(N)=O)NC(=O)[C@H]([C@@H](C)CC)NC1=O [compound 102] ({CH2CO}-AV[NMePhe(3-Cl)]V[Trp(1-CH2COOH)]NYY(Carboxymethyl)[Nva(3-Et)]IQR[3Pal(6-NH2)][NMeY]C[PEG4]-NH2; thioether N-15) | 9.81 nM | 76.4 nM |
| CCC(CC)[C@@H]1NC(=O)[C@H](Cc2ccc(OCC(=O)O)cc2)NC(=O)[C@H](Cc2ccc(O)cc2)NC(=O)[C@H](CC(N)=O)NC(=O)[C@H](Cc2cn(CC(=O)O)c3ccccc23)NC(=O)[C@H](C(C)C)NC(=O)[C@H](Cc2cccc(Cl)c2)N(C)C(=O)[C@H](C(C)C)NC(=O)[C@H](C)NC(=O)CSC[C@@H](C(=O)NCCOCCOCCOCCOCCC(N)=O)NC(=O)[C@H](Cc2ccc(O)cc2)N(C)C(=O)[C@H](Cc2ccnc(OC)c2)NC(=O)[C@H](CCCNC(=N)N)NC(=O)[C@H](CCC(N)=O)NC(=O)[C@H]([C@@H](C)CC)NC1=O [compound 103] ({CH2CO}-AV[NMePhe(3-Cl)]V[Trp(1-CH2COOH)]NYY(Carboxymethyl)[Nva(3-Et)]IQR[X5][NMeY]C[PEG4]-NH2; thioether N-15) | 11.5 nM | 95 nM |
| CCC(CC)[C@@H]1NC(=O)[C@H](Cc2ccc(OCC(=O)O)cc2)NC(=O)[C@H](Cc2ccc(O)cc2)NC(=O)[C@H](CC(N)=O)NC(=O)[C@H](Cc2c[nH]c3ncccc23)NC(=O)[C@H](C(C)C)NC(=O)[C@H](Cc2cccc(Cl)c2)N(C)C(=O)[C@H](C(C)C)NC(=O)[C@H](C)NC(=O)CSC[C@@H](C(=O)NCCOCCOCCOCCOCCC(N)=O)NC(=O)[C@H](Cc2ccc(O)cc2)N(C)C(=O)[C@H](Cc2cccc(C(=O)O)c2)NC(=O)[C@H](CCCNC(=N)N)NC(=O)[C@H](CCC(=O)NCCOCCOCCOCCOCCOCCOCCOCCOC)NC(=O)[C@H]([C@@H](C)CC)NC1=O [compound 106] ({CH2CO}-AV[NMePhe(3-Cl)]V[Trp(7-aza)]NYY(Carboxymethyl)[Nva(3-Et)]IE(NH(CH2CH2O)8Me)R[Phe(3-COOH)][NMeY]C[PEG4]-NH2; thioether N-15) | 26 nM | 90.1 nM |
| CCC(CC)[C@@H]1NC(=O)[C@H](Cc2ccc(OC)cc2)NC(=O)[C@H](Cc2ccc(O)cc2)NC(=O)[C@H](CC(N)=O)NC(=O)[C@H](Cc2c[nH]c3ccccc23)NC(=O)[C@H](C(C)C)NC(=O)[C@H](Cc2cccc(Cl)c2)N(C)C(=O)[C@H](C(C)C)NC(=O)[C@H](C)NC(=O)CSC[C@@H](C(=O)NCCOCCOCCOCCOCCC(N)=O)NC(=O)[C@H](Cc2ccc(C(=O)O)cc2)N(C)C(=O)[C@H](Cc2cccc(C(=O)NCCOCCOCCOCCOCCC(=O)O)c2)NC(=O)[C@H](CCCNC(=N)N)NC(=O)[C@H](CCC(N)=O)NC(=O)[C@H]([C@@H](C)CC)NC1=O [compound 111] ({CH2CO}-AV[NMePhe(3-Cl)]VWNYY(Me)[Nva(3-Et)]IQR[X1](PEG4)[NMePhe(4-COOH)]C[PEG4]-NH2; thioether N-15) | 2.06 nM | 3.47 nM |
| CCC(CC)[C@@H]1NC(=O)[C@H](Cc2ccc(OCC(=O)O)cc2)NC(=O)[C@H](Cc2ccc(O)cc2)NC(=O)[C@H](CC(N)=O)NC(=O)[C@H](Cc2c[nH]c3ccccc23)NC(=O)[C@H](C(C)C)NC(=O)[C@H](Cc2cccc(Cl)c2)N(C)C(=O)[C@H](C(C)C)NC(=O)[C@H](C)NC(=O)CSC[C@@H](C(=O)NCCOCCOCCOCCOCCC(N)=O)NC(=O)[C@H](Cc2ccc(O)cc2)N(C)C(=O)[C@H](Cc2cccc(C(=O)NCCOCCOCCOCCOCCC(=O)O)c2)NC(=O)[C@H](CCCNC(=N)N)NC(=O)[C@H](CCC(N)=O)NC(=O)[C@H]([C@@H](C)CC)NC1=O [compound 112] ({CH2CO}-AV[NMePhe(3-Cl)]VWNYY(Carboxymethyl)[Nva(3-Et)]IQR[X1](PEG4)[NMeY]C[PEG4]-NH2; thioether N-15) | 3.53 nM | 11.5 nM |
| CCC(CC)[C@@H]1NC(=O)[C@H](Cc2ccc(OC)cc2)NC(=O)[C@H](Cc2ccc(O)cc2)NC(=O)[C@H](CC(N)=O)NC(=O)[C@H](Cc2c[nH]c3ncccc23)NC(=O)[C@H](C(C)C)NC(=O)[C@H](Cc2cccc(Cl)c2)N(C)C(=O)[C@H](C(C)C)NC(=O)[C@H](C)NC(=O)CSC[C@@H](C(=O)NCCOCCOCCOCCOCCC(N)=O)NC(=O)[C@H](Cc2ccc(C(=O)O)cc2)N(C)C(=O)[C@H](Cc2ccncc2)NC(=O)[C@H](CCCNC(=N)N)NC(=O)[C@H](CCCCN2CCOCC2)NC(=O)[C@H]([C@@H](C)CC)NC1=O [compound 114] ({CH2CO}-AV[NMePhe(3-Cl)]V[Trp(7-aza)]NYY(Me)[Nva(3-Et)]I[Nle(6-morpholino)]R[4Pal][NMePhe(4-COOH)]C[PEG4]-NH2; thioether N-15) | 1.33 nM | 10.6 nM |
| CC[C@H](C)[C@@H]1NC(=O)[C@H](Cc2ccc(OC)cc2)NC(=O)[C@H](Cc2ccc(N)nc2)NC(=O)[C@H](CC(N)=O)NC(=O)[C@H](Cc2c[nH]c3ccccc23)NC(=O)[C@H](C(C)C)NC(=O)[C@H](Cc2cccc(Cl)c2)N(C)C(=O)[C@H](C(C)C)NC(=O)[C@H](C)NC(=O)CSC[C@@H](C(=O)NCCOCCOCCOCCOCCC(N)=O)NC(=O)[C@H](Cc2ccc(C(=O)O)cc2)N(C)C(=O)[C@H](Cc2cccc(C(=O)NCCOCCOCCOCCOCCC(=O)O)c2)NC(=O)[C@H](CCCNC(=N)N)NC(=O)[C@H](CCC(N)=O)NC(=O)[C@H]([C@@H](C)CC)NC1=O [compound 115] ({CH2CO}-AV[NMePhe(3-Cl)]VWN[3Pal(6-NH2)]Y(Me)IIQR[X1](PEG4)[NMePhe(4-COOH)]C[PEG4]-NH2; thioether N-15) | 1.84 nM | 12.6 nM |

Now from value to compound:

| Kd [1] | Kd [2] | SMILES |
| --- | --- | --- |
| 10.7 nM | 78.2 nM | CCC(CC)[C@@H]1NC(=O)[C@H](Cc2ccc(OCC(=O)O)cc2)NC(=O)[C@H](Cc2ccc(O)cc2)NC(=O)[C@H](CC(N)=O)NC(=O)[C@H](Cc2cn(CC(=O)O)c3ccccc23)NC(=O)[C@H](C(C)C)NC(=O)[C@H](Cc2cccc(Cl)c2)N(C)C(=O)[C@H](C(C)C)NC(=O)[C@H](C)NC(=O)CSC[C@@H](C(=O)NCCOCCOCCOCCOCCC(N)=O)NC(=O)[C@H](Cc2ccc(O)cc2)N(C)C(=O)[C@H](Cc2ccnc(N)c2)NC(=O)[C@H](CCCNC(=N)N)NC(=O)[C@H](CCC(N)=O)NC(=O)[C@H]([C@@H](C)CC)NC1=O [compound 104] ({CH2CO}-AV[NMePhe(3-Cl)]V[Trp(1-CH2COOH)]NYY(Carboxymethyl)[Nva(3-Et)]IQR[Ala(2-NH2-4-pyridyl)][NMeY]C[PEG4]-NH2; thioether N-15) |
| 10.6 nM | 67.9 nM | CCC(CC)[C@@H]1NC(=O)[C@H](Cc2ccc(OCC(=O)O)cc2)NC(=O)[C@H](Cc2ccc(O)cc2)NC(=O)[C@H](CC(N)=O)NC(=O)[C@H](Cc2cn(CC(=O)O)c3ccccc23)NC(=O)[C@H](C(C)C)NC(=O)[C@H](Cc2cccc(Cl)c2)N(C)C(=O)[C@H](C(C)C)NC(=O)[C@H](C)NC(=O)CSC[C@@H](C(=O)NCCOCCOCCOCCOCCC(N)=O)NC(=O)[C@H](Cc2ccc(O)cc2)N(C)C(=O)[C@H](Cc2cccnc2)NC(=O)[C@H](CCCNC(=N)N)NC(=O)[C@H](CCC(N)=O)NC(=O)[C@H]([C@@H](C)CC)NC1=O [compound 105] ({CH2CO}-AV[NMePhe(3-Cl)]V[Trp(1-CH2COOH)]NYY(Carboxymethyl)[Nva(3-Et)]IQR[3Pal][NMeY]C[PEG4]-NH2; thioether N-15) |
| 13.9 nM | 36.1 nM | CCC(CC)[C@@H]1NC(=O)[C@H](Cc2ccc(OCC(=O)O)cc2)NC(=O)[C@H](Cc2ccc(O)cc2)NC(=O)[C@H](CC(N)=O)NC(=O)[C@H](Cc2c[nH]c3ncccc23)NC(=O)[C@H](C(C)C)NC(=O)[C@H](Cc2cccc(Cl)c2)N(C)C(=O)[C@H](C(C)C)NC(=O)[C@H](C)NC(=O)CSC[C@@H](C(=O)NCCOCCOCCOCCOCCC(N)=O)NC(=O)[C@H](Cc2ccc(C(=O)O)cc2)N(C)C(=O)[C@H](Cc2cccc(C(=O)O)c2)NC(=O)[C@H](CCCNC(=N)N)NC(=O)[C@H](CCC(N)=O)NC(=O)[C@H]([C@@H](C)CC)NC1=O [compound 108] ({CH2CO}-AV[NMePhe(3-Cl)]V[Trp(7-aza)]NYY(Carboxymethyl)[Nva(3-Et)]IQR[Phe(3-COOH)][NMePhe(4-COOH)]C[PEG4]-NH2; thioether N-15) |
| 6.99 nM | 11.1 nM | CCC(CC)[C@@H]1NC(=O)[C@H](Cc2ccc(OCC(=O)O)cc2)NC(=O)[C@H](Cc2ccc(O)cc2)NC(=O)[C@H](CC(N)=O)NC(=O)[C@H](Cc2cn(CC(=O)O)c3ccccc23)NC(=O)[C@H](C(C)C)NC(=O)[C@H](Cc2cccc(Cl)c2)N(C)C(=O)[C@H](C(C)C)NC(=O)[C@H](C)NC(=O)CSC[C@@H](C(=O)NCCOCCOCCOCCOCCC(N)=O)NC(=O)[C@H](Cc2ccc(O)cc2)N(C)C(=O)[C@H](Cc2cccc(C(=O)O)c2)NC(=O)[C@H](CCCCN2CCOCC2)NC(=O)[C@H](CCCCN2CCOCC2)NC(=O)[C@H]([C@@H](C)CC)NC1=O [compound 109] ({CH2CO}-AV[NMePhe(3-Cl)]V[Trp(1-CH2COOH)]NYY(Carboxymethyl)[Nva(3-Et)]I[Nle(6-morpholino)][Nle(6-morpholino)][Phe(3-COOH)][NMeY]C[PEG4]-NH2; thioether N-15) |
| 7.46 nM | 12.8 nM | CCC(CC)[C@@H]1NC(=O)[C@H](Cc2ccc(OCC(=O)O)cc2)NC(=O)[C@H](Cc2ccc(O)cc2)NC(=O)[C@H](CC(N)=O)NC(=O)[C@H](Cc2c[nH]c3ccccc23)NC(=O)[C@H](C(C)C)NC(=O)[C@H](Cc2cccc(Cl)c2)N(C)C(=O)[C@H](C(C)C)NC(=O)[C@H](C)NC(=O)CSC[C@@H](C(=O)NCCOCCOCCOCCOCCC(N)=O)NC(=O)[C@H](Cc2ccc(C(=O)O)cc2)N(C)C(=O)[C@H](Cc2cccc(C(=O)NCCOCCOCCOCCOCCC(=O)O)c2)NC(=O)[C@H](CCCNC(=N)N)NC(=O)[C@H](CCC(N)=O)NC(=O)[C@H]([C@@H](C)CC)NC1=O [compound 110] ({CH2CO}-AV[NMePhe(3-Cl)]VWNYY(Carboxymethyl)[Nva(3-Et)]IQR[X1](PEG4)[NMePhe(4-COOH)]C[PEG4]-NH2; thioether N-15) |
